Assay results published in publication PMC9289467, “A Novel Multifunctional 5,6-Dimethoxy-Indanone-Chalcone-Carbamate Hybrids Alleviates Cognitive Decline in Alzheimer’s Disease by Dual Inhibition of Acetylcholinesterase and Inflammation” (Frontiers in Aging Neuroscience, 2022).

Legend:
[1] = molecular target: T1, pre-formed Aβ42-AChE fibrils complex (Homo sapiens, UniProt P22303); test: Disaggregation of pre-formed Aβ42-AChE fibrils (ThT); format: biochemical; details: Aβ42 pre-aggregated with AChE for 2 days before co-incubation with AP5
T1 construct: purchased Roche (AChE); Aladdin (Aβ42) R005282 (AChE); A118755 (Aβ42)
T1 sequence (P22303 32-614, one chain of several): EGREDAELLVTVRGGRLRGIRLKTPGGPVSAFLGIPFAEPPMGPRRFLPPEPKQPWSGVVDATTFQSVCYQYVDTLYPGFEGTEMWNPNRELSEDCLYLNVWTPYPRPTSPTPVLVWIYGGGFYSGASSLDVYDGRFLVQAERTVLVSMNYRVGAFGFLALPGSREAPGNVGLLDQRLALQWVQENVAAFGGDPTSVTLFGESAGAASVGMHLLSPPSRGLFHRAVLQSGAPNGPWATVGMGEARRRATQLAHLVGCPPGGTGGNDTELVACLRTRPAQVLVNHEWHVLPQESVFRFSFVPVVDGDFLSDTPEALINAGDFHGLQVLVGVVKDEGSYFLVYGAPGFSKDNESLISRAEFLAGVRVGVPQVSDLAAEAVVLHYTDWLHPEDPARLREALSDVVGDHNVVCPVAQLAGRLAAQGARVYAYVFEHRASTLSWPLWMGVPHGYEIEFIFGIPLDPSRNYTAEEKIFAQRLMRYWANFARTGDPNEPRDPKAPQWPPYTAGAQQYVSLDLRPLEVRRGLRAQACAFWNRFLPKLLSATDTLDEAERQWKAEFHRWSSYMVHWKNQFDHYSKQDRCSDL
Procedure: The effects of AP5 on Aβ fibril formation and pre-formed Aβ fibrils disaggregation were determined using a previously described method of Thioflavin T (ThT, T3516, Sigma Aldrich, St. Louis, MO, United States) fluorometry ([Jan et al., 2010]).
Supplementary materials and methods … ...1 […]
Supplementary Figure 1 … .....7
Supplementary Figure 2 … .....7
Supplementary materials and methods
Prepations ofspecimen for pharmacokinetics analysis
24 h afterdosing. Brains were collected at0, 0.25, 0.5,2, 4,8 and 24 h after administration.Plasma extractions were performed by adding 90 μL methanol and 2 μL internalstandard letrozole (500 ng/mL) to a30 µL plasma sample. […]
Then 90 μL methanol and 2 μL letrozolewere added to 30 µl brainhomogenates. The samples were vortexed for 3 min and centrifuged 15 min at25,000 g.The plasma and brainhomogenate were analyzed by UPLC-TSQ/MS (Thermo Fisher Scientific, Waltham, MA, USA). […]
To study the kinetics of Aβ-AChE fibril complex formation, 10 μM Aβ was mixed with AChE (R005282, Roche, Basel, Switzerland) and different concentrations AP5 and incubated with 10 μM ThT and 50 mM glycine-NaOH (pH 8.5) at 37°C, the ThT fluorescence was continually measured for 24 h at 30 min intervals. […] Fluorescence emission at485 nm was measured on a Spectra MAX GeminiXS fluorometerat an excitation wavelength of 450 nm. […]

[2] = tested on: spatial recognition memory; test: Y-maze; format: in vivo; details: after training for 3 h, relative to APP/PS1 mice
Procedure: APP/PS1 mice of ages 6 months were randomly divided into vehicle (APP/PS1, n = 10) and treatment groups (AP5, n = 10), which were intragastrically administered with AP5 (40 mg/kg) once daily for consecutive 5 months. AP5 was dissolved in distilled water containing 1% sodium carboxymethyl cellulose.
To investigate whether AP5 treatment plays a key role in cognition improvement of APP/PS1 mice models, the five different behavioral tests were sequentially carried out in the following order: open field, novel object recognition task, spatial object-location task, Y-maze, and Morris water maze (MWM). AP5 was also administered daily during the test periods. […]
For the spatial object location task (an object moved to a new location), mice first explored the two objects placed in two corners of the open field for 5 min in training period. After 1 h or 24 h, the mice received a 5 min retention trial with a new spatial configuration with an object moved from one corner to the opposite corner of the open field.The discrimination index was calculated and defined as: (time spent exploring the displaced object-time spent exploring nondisplaced objects) / total exploration time for the two objects during the 5 min retention trial. […]
guided to platform and allowed to stay on it for 30 s. The time (escape latency) for each mouse to find the way and reach the target platform was analyzed. […]

SMILES: CCN(C)C(=O)Oc1cccc(/C=C2\Cc3cc(OC)c(OC)cc3C2=O)c1 [AP5, (E)-3-((5,6-dimethoxy-1-oxo-1,3-dihydro-2H-inden-2-ylidene)-methyl)phenylethyl(methyl)carbamate]
- ThT fluorescence intensity, disaggregation of pre-formed Aβ42 fibrils [1]: marked decline of ThT fluorescence intensity
- preference index [2]: marked elevation
